Test results published in patent publication US8802597B2, “Herbicidal pyrimidines” (E I du Pont de Nemours and Company, priority 2003, dated 2014).

How the values were obtained:
Type in all cases: in vivo
[1] = test system: morningglory (Ipomoea spp.); assay: Test A pre/postemergence
How it was run: (§1)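 Compared with untreated controls, treated plants were visually rated for injury on a 0 (none) to 100 (complete control) scale about ten days after spraying. Pre- and postemergence applications used one solvent/surfactant formulation; postemergence plants measured 2–10 cm.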

[2] = test system: velvetleaf (Abutilon theophrasti); assay: Test A pre/postemergence
How it was run: as §1

[3] = test system: crabgrass (Digitaria sanguinalis); assay: Test A pre/postemergence
How it was run: as §1

[4] = test system: barnyardgrass (Echinochloa crus-galli); assay: Test A pre/postemergence
How it was run: as §1

[5] = test system: giant foxtail (Setaria faberi); assay: Test A pre/postemergence
How it was run: as §1

[6] = test system: redroot pigweed (Amaranthus retroflexus); assay: Test A pre/postemergence
How it was run: as §1

[7] = test system: rice flatsedge (Cyperus iria); assay: Test E flooded paddy water application; conditions: Flood, 21 days, scale 0 to 100 (0 no effect, 100 complete control)
How it was run: (§2)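 Response scored visually on a 0–100 scale (100 = complete control) at 21 days against untreated pots. Treatment was into paddy water 3 cm deep over silt loam, with plants at the 2.0–2.5-leaf stage, grown under 16-h light at 29.5/26.7 °C day/night.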

[8] = test system: smallflower umbrella sedge (Cyperus difformis); assay: Test E flooded paddy water application; conditions: Flood, 21 days, scale 0 to 100 (0 no effect, 100 complete control)
How it was run: as §2

[9] = test system: ducksalad (Heteranthera limosa); assay: Test E flooded paddy water application; conditions: Flood, 21 days, scale 0 to 100 (0 no effect, 100 complete control)
How it was run: as §2

[10] = test system: barnyardgrass (Echinochloa crus-galli); assay: Test E flooded paddy water application; conditions: Flood, 21 days, scale 0 to 100 (0 no effect, 100 complete control)
How it was run: as §2

[11] = test system: purple redstem (Ammannia coccinea); assay: Test E flooded paddy water application; conditions: Flood, 21 days, scale 0 to 100 (0 no effect, 100 complete control)
How it was run: as §2

[12] = test system: late watergrass (Echinochloa oryzicola); assay: Test E flooded paddy water application; conditions: Flood, 21 days, scale 0 to 100 (0 no effect, 100 complete control)
How it was run: as §2

[13] = test system: bearded (brdd.) sprangletop (Leptochloa fusca ssp. fascicularis); assay: Test E flooded paddy water application; conditions: Flood, 21 days, scale 0 to 100 (0 no effect, 100 complete control)
How it was run: as §2

[14] = test system: transplanted rice seedlings (Oryza sativa cv. ‘Japonica-M202’); assay: Test E flooded paddy water application; conditions: Flood, 21 days, scale 0 to 100 (0 no effect, 100 complete control)
How it was run: as §2

[15] = test system: junglerice (Echinochloa colona); assay: Test E flooded paddy water application; conditions: Flood, 21 days, scale 0 to 100 (0 no effect, 100 complete control)
How it was run: as §2

[16] = test system: early watergrass (Echinochloa oryzoides); assay: Test E flooded paddy water application; conditions: Flood, 21 days, scale 0 to 100 (0 no effect, 100 complete control)
How it was run: as §2

[17] = test system: water seeded rice seedlings (Oryza sativa cv. ‘Japonica-M202’); assay: Test E flooded paddy water application; conditions: Flood, 21 days, scale 0 to 100 (0 no effect, 100 complete control)
How it was run: as §2

[18] = Postemergence, 125 g ai/ha, 0 to 100 scale (0 no effect, 100 complete control)
[19] = Postemergence, 500 g ai/ha, 0 to 100 scale (0 no effect, 100 complete control)
[20] = Preemergence, 125 g ai/ha, 0 to 100 scale where 0 is no effect and 100 is complete control, approximately ten days
[21] = Preemergence, 500 g ai/ha, 0 to 100 scale where 0 is no effect and 100 is complete control, approximately ten days

CCOC(=O)c1nc(-c2ccc(C)cc2)nc(N)c1Br [Compound 61]
Plant response rating, Morningglory [1, 18]: 10 | Plant response rating, Morningglory [1, 19]: 30 | Plant response rating, Morningglory [1, 20]: 0 | Plant response rating, Morningglory [1, 21]: 15 | Plant response rating, Velvetleaf [2, 18]: 70 | Plant response rating, Velvetleaf [2, 19]: 100 | Plant response rating, Velvetleaf [2, 20]: 0 | Plant response rating, Velvetleaf [2, 21]: 50 | Plant response rating, Crabgrass [3, 18]: 0 | Plant response rating, Crabgrass [3, 19]: 5 | Plant response rating, Crabgrass [3, 20]: 0 | Plant response rating, Crabgrass [3, 21]: 30 | Plant response rating, Barnyardgrass [4, 18]: 35 | Plant response rating, Barnyardgrass [4, 19]: 60 | Plant response rating, Barnyardgrass [4, 20]: 0 | Plant response rating, Barnyardgrass [4, 21]: 10 | Plant response rating, Foxtail, Giant [5, 18]: 0 | Plant response rating, Foxtail, Giant [5, 19]: 25 | Plant response rating, Foxtail, Giant [5, 20]: 0 | Plant response rating, Foxtail, Giant [5, 21]: 10 | Plant response rating, Pigweed [6, 18]: 25 | Plant response rating, Pigweed [6, 19]: 50 | Plant response rating, Pigweed [6, 20]: 0 | Plant response rating, Pigweed [6, 21]: 30 | Flatsedge, Rice plant response rating ([7]; 32 g ai/ha): 0 | Flatsedge, Rice plant response rating ([7]; 64 g ai/ha): 0 | Flatsedge, Rice plant response rating ([7]; 125 g ai/ha): 40 | Flatsedge, Rice plant response rating ([7]; 250 g ai/ha): 40 | Flatsedge, Rice plant response rating ([7]; 500 g ai/ha): 95 | Sedge, Umbrella plant response rating ([8]; 32 g ai/ha): 20 | Sedge, Umbrella plant response rating ([8]; 64 g ai/ha): 75 | Sedge, Umbrella plant response rating ([8]; 125 g ai/ha): 85 | Sedge, Umbrella plant response rating ([8]; 250 g ai/ha): 95 | Sedge, Umbrella plant response rating ([8]; 500 g ai/ha): 100 | Ducksalad plant response rating ([9]; 32 g ai/ha): 100 | Ducksalad plant response rating ([9]; 64 g ai/ha): 100 | Ducksalad plant response rating ([9]; 125 g ai/ha): 100 | Ducksalad plant response rating ([9]; 250 g ai/ha): 100 | Ducksalad plant response rating ([9]; 500 g ai/ha): 100 | Barnyardgrass plant response rating ([10]; 32 g ai/ha): 0 | Barnyardgrass plant response rating ([10]; 64 g ai/ha): 0 | Barnyardgrass plant response rating ([10]; 125 g ai/ha): 0 | Barnyardgrass plant response rating ([10]; 250 g ai/ha): 0 | Barnyardgrass plant response rating ([10]; 500 g ai/ha): 65 | Redstem plant response rating ([11]; 32 g ai/ha): 65 | Redstem plant response rating ([11]; 64 g ai/ha): 80 | Redstem plant response rating ([11]; 125 g ai/ha): 80 | Redstem plant response rating ([11]; 250 g ai/ha): 100 | Redstem plant response rating ([11]; 500 g ai/ha): 100 | Watergrass, Late plant response rating ([12]; 32 g ai/ha): 0 | Watergrass, Late plant response rating ([12]; 64 g ai/ha): 20 | Watergrass, Late plant response rating ([12]; 125 g ai/ha): 20 | Watergrass, Late plant response rating ([12]; 250 g ai/ha): 20 | Watergrass, Late plant response rating ([12]; 500 g ai/ha): 25 | Sprangletop, Brdd. plant response rating ([13]; 32 g ai/ha): 35 | Sprangletop, Brdd. plant response rating ([13]; 64 g ai/ha): 35 | Sprangletop, Brdd. plant response rating ([13]; 125 g ai/ha): 60 | Sprangletop, Brdd. plant response rating ([13]; 250 g ai/ha): 65 | Sprangletop, Brdd. plant response rating ([13]; 500 g ai/ha): 65 | Rice, Transplanted plant response rating ([14]; 32 g ai/ha): 0 | Rice, Transplanted plant response rating ([14]; 64 g ai/ha): 0 | Rice, Transplanted plant response rating ([14]; 125 g ai/ha): 0 | Rice, Transplanted plant response rating ([14]; 250 g ai/ha): 0 | Rice, Transplanted plant response rating ([14]; 500 g ai/ha): 25 | Junglerice plant response rating ([15]; 32 g ai/ha): 0 | Junglerice plant response rating ([15]; 64 g ai/ha): 20 | Junglerice plant response rating ([15]; 125 g ai/ha): 20 | Junglerice plant response rating ([15]; 250 g ai/ha): 25 | Junglerice plant response rating ([15]; 500 g ai/ha): 25 | Watergrass, Early plant response rating ([16]; 32 g ai/ha): 0 | Watergrass, Early plant response rating ([16]; 64 g ai/ha): 0 | Watergrass, Early plant response rating ([16]; 125 g ai/ha): 0 | Watergrass, Early plant response rating ([16]; 250 g ai/ha): 20 | Watergrass, Early plant response rating ([16]; 500 g ai/ha): 25 | Rice, Water Seeded plant response rating ([17]; 32 g ai/ha): 0 | Rice, Water Seeded plant response rating ([17]; 64 g ai/ha): 0 | Rice, Water Seeded plant response rating ([17]; 125 g ai/ha): 0 | Rice, Water Seeded plant response rating ([17]; 250 g ai/ha): 10 | Rice, Water Seeded plant response rating ([17]; 500 g ai/ha): 35
